Assay results taken from patent US20260193293A1, “PEPTIDES CAPABLE OF INHIBITING PROTEIN-PROTEIN INTERACTIONS AT GABAB1A SUBUNIT AND USES THEREOF” (UNIVERSITY OF COPENHAGEN, priority 2022, published 2026).
Where two headings read alike, the source gives them in different places. Non-standard residues stand in square brackets, D forms with d. Residues, ends and D or L forms follow the SMILES beside them. NMeR = CN[C@@H](CCCNC(=N)N)C(=O)O

Target: Sushi domains (SD1/2) protein
Assay: Fluorescence polarization (FP) competition assay with AJAP-1probe, calculated Ki
Format: binding
Summary of the method: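 Ki values were derived from IC50s (sigmoidal fits, ≥ triplicate), with probe Kd obtained by saturation titration of SD1/2. Peptides displaced a 25 nM TAMRA-labelled probe; polarization read at 530/580 nm in 1% BSA-containing PBS, pH 7.4, room temperature.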

[1] = Table 4, truncation and elongation scans of APP epitope, read-out: Ki (nM) mean ± SEM
[2] = Table 11, deep mutational scanning validation variants of AJAP-1WT, read-out: Ki (nM) mean ± SEM
[3] = Table 10, deep mutational scanning validation variants of APPWT, read-out: Ki (nM) mean ± SEM
[4] = Table 7, Ala-, D-amino acids and N-methylation scans of APPWT, read-out: Ki (nM) mean ± SEM

CC[C@H](C)[C@H](NC(=O)[C@H](Cc1c[nH]c2ccccc12)NC(=O)[C@H](CC(=O)O)NC(=O)[C@H](CC(=O)O)NC(=O)[C@H](CC(=O)O)NC(=O)[C@H](CCC(=O)O)NC(=O)[C@H](CCCNC(=N)N)NC(=O)[C@H](CCCNC(=N)N)NC(=O)[C@H](CCCNC(=N)N)NC(=O)[C@H](CCCNC(=N)N)NC(=O)[C@H](CCCNC(=N)N)NC(=O)[C@H](CCCNC(=N)N)NC(C)=O)C(=O)N[C@@H](CC(=O)O)C(=O)N[C@@H](Cc1c[nH]c2ccccc12)C(=O)NCC(=O)N1CCC[C@H]1C(=O)N[C@H](C(=O)N[C@@H](CO)C(=O)N[C@@H](CC(=O)O)C(=O)N[C@@H](CC(=O)O)C(=O)N[C@@H](CC(=O)O)C(N)=O)[C@@H](C)O (Ac-RRRRRREDDDWIDWGPTSDDD-NH2)
Ki (Table 14, CPPs tagged peptides, read-out: Ki (nM) mean ± SEM): 43.4 ± 1 nM

CC[C@H](C)[C@H](NC(=O)[C@H](Cc1ccccc1)NC(=O)[C@H](CCC(=O)O)NC(=O)[C@@H](NC(=O)[C@H](CCC(=O)O)NC(=O)[C@@H](NC(C)=O)[C@@H](C)O)[C@@H](C)O)C(=O)N[C@@H](C)C(=O)N[C@@H](Cc1c[nH]c2ccccc12)C(=O)NCC(=O)N1CCC[C@H]1C(=O)N[C@H](C(N)=O)[C@@H](C)O (Ac-TETEFIAWGPT-NH2)
Ki (Table 5, elongation and truncation scan of AJAP-1 binding epitope, read-out: Ki (nM) mean ± SEM): 236 ± 9 nM

CC[C@H](C)[C@H](NC(=O)[C@H](Cc1ccccc1)NC(=O)[C@H](C)NC(=O)[C@@H](NC(=O)[C@H](CCC(=O)O)NC(C)=O)[C@@H](C)O)C(=O)N[C@@H](C)C(=O)N[C@@H](Cc1c[nH]c2ccccc12)C(=O)NCC(=O)N1CCC[C@H]1C(=O)N[C@H](C(=O)NCC(=O)N[C@@H](CC(=O)O)C(=O)N[C@@H](CCC(=O)O)C(=O)N[C@@H](CC(=O)O)C(N)=O)[C@@H](C)O [ETAFIAWGPTGDED] (Ac-ETAFIAWGPTGDED-NH2)
Ki (Table 8, Ala-, D-amino acids and N-methylation scans of AJAP-1WT, read-out: Ki (nM) mean ± SEM): 49 ± 2 nM

CC(=O)N[C@@H](CC(=O)O)C(=O)N[C@@H](CO)C(=O)N[C@@H](C)C(=O)N[C@@H](CC(=O)O)C(=O)N[C@@H](C)C(=O)N[C@@H](CCC(=O)O)C(=O)N[C@@H](CCC(=O)O)C(=O)N[C@@H](CC(=O)O)C(=O)N[C@@H](CC(=O)O)C(=O)N[C@@H](CO)C(=O)N[C@@H](CC(=O)O)C(=O)N[C@H](C(=O)N[C@@H](Cc1c[nH]c2ccccc12)C(=O)N[C@@H](Cc1c[nH]c2ccccc12)C(=O)NCC(N)=O)C(C)C [Peptide 11] (Ac-DSADAEEDDSDVWWG-NH2)
Ki (AJAP-1probe, read-out: Ki): 5000 nM
Ki (Table 3, SPOT hit validation and previously reported peptides, read-out: Ki (nM) mean ± SEM): 5030 ± 171 nM

CC(=O)N[C@@H](Cc1c[nH]c2ccccc12)C(=O)N[C@@H](Cc1c[nH]c2ccccc12)C(=O)NCC(=O)NCC(=O)N[C@@H](C)C(=O)N[C@@H](CC(=O)O)C(=O)N[C@H](C(=O)N[C@@H](CC(=O)O)C(=O)N[C@@H](Cc1ccc(O)cc1)C(=O)N[C@@H](C)C(=O)N[C@@H](CC(=O)O)C(N)=O)[C@@H](C)O (Ac-WWGGADTDYAD-NH2)
Ki [1]: > 62500 nM

CC[C@H](C)[C@H](NC(=O)[C@H](Cc1ccccc1)NC(=O)[C@H](CCC(=O)O)NC(=O)[C@@H](NC(=O)[C@H](CCC(=O)O)NC(C)=O)[C@@H](C)O)C(=O)N[C@@H](C)C(=O)N[C@@H](Cc1c[nH]c2ccccc12)C(=O)NCC(=O)N1CCC[C@H]1C(=O)N[C@H](C(=O)NCC(=O)N[C@@H](CC(=O)O)C(=O)N[C@@H](Cc1c[nH]c2ccccc12)C(=O)N[C@@H](CC(=O)O)C(N)=O)[C@@H](C)O (Ac-ETEFIAWGPTGDWD-NH2)
Ki [2]: 54 ± 1 nM

CC[C@H](C)[C@H](NC(=O)[C@H](C)NC(=O)[C@H](Cc1c[nH]c2ccccc12)NC(=O)[C@@H]1CCCN1C(C)=O)C(=O)N[C@H](C(=O)N[C@@H](Cc1c[nH]c2ccccc12)C(=O)NCC(=O)N1CCC[C@H]1C(=O)N[C@H](C(=O)N[C@H](C(=O)N[C@@H](CO)C(=O)N(C)[C@@H](CCCNC(=N)N)C(=O)N[C@@H](CCC(=O)O)C(=O)N[C@@H](CC(=O)O)C(N)=O)C(C)C)[C@@H](C)O)C(C)C (Ac-PWAIVWGPTVS[NMeR]ED-NH2)
Ki (Table 9, Ala-, D-amino acids and N-methylation scans of PIANPWT, read-out: Ki (nM) mean ± SEM): 502 ± 15 nM

CC(=O)N[C@@H](CCC(=O)O)C(=O)N[C@@H](CCC(=O)O)C(=O)N[C@@H](CC(=O)O)C(=O)N[C@@H](CC(=O)O)C(=O)N[C@@H](CO)C(=O)N[C@@H](CC(=O)O)C(=O)N[C@H](C(=O)N[C@@H](Cc1c[nH]c2ccccc12)C(=O)N[C@@H](Cc1c[nH]c2ccccc12)C(=O)NCC(=O)NCC(=O)N[C@@H](C)C(=O)N[C@@H](CC(=O)O)C(=O)N[C@H](C(=O)N[C@@H](CC(=O)O)C(=O)N[C@@H](Cc1ccc(O)cc1)C(N)=O)[C@@H](C)O)C(C)C (Ac-EEDDSDVWWGGADTDY-NH2)
Ki [1]: 301 ± 7 nM

CC(=O)N[C@@H](CCC(=O)O)C(=O)N[C@@H](CC(=O)O)C(=O)N[C@@H](CC(=O)O)C(=O)N[C@@H](CO)C(=O)N[C@@H](CC(=O)O)C(=O)N[C@@H](C)C(=O)N[C@@H](Cc1c[nH]c2ccccc12)C(=O)N[C@@H](Cc1c[nH]c2ccccc12)C(=O)NCC(=O)NCC(=O)N[C@@H](C)C(=O)N[C@@H](CC(=O)O)C(=O)N[C@H](C(=O)N[C@@H](CC(=O)O)C(N)=O)[C@@H](C)O (Ac-EDDSDAWWGGADTD-NH2)
Ki (Table 7, cells printed in μM, read-out: Ki (nM) mean ± SEM): > 62500 nM

CC(=O)N[C@@H](CCC(=O)O)C(=O)N[C@@H](CC(=O)O)C(=O)N[C@@H](CC(=O)O)C(=O)N[C@@H](CO)C(=O)N[C@@H](CC(=O)O)C(=O)N[C@H](C(=O)N[C@@H](CC(=O)O)C(=O)N[C@@H](Cc1c[nH]c2ccccc12)C(=O)NCC(=O)NCC(=O)N[C@@H](C)C(=O)N[C@@H](CC(=O)O)C(=O)N[C@H](C(=O)N[C@@H](CC(=O)O)C(N)=O)[C@@H](C)O)C(C)C (Ac-EDDSDVDWGGADTD-NH2)
Ki [3]: 4804 ± 43 nM

CC[C@H](C)[C@H](NC(=O)[C@H](Cc1ccccc1)NC(=O)[C@H](Cc1c[nH]c2ccccc12)NC(=O)[C@@H]1CCCN1C(C)=O)C(=O)N[C@H](C(=O)N[C@@H](Cc1c[nH]c2ccccc12)C(=O)NCC(=O)N1CCC[C@H]1C(=O)N[C@H](C(=O)N[C@H](C(=O)N[C@@H](CO)C(=O)N[C@@H](CCCNC(=N)N)C(=O)N[C@@H](CCC(=O)O)C(=O)N[C@@H](CC(=O)O)C(N)=O)C(C)C)[C@@H](C)O)C(C)C [PWFIVWGPTVSRED] (Ac-PWFIVWGPTVSRED-NH2)
Ki (Table 12, deep mutational scanning validation variants of PIANPWT, read-out: Ki (nM) mean ± SEM): 461 ± 10 nM

CC[C@H](C)[C@H](NC(=O)[C@H](Cc1ccccc1)NC(=O)[C@H](CCC(=O)O)NC(=O)[C@@H](NC(=O)[C@H](CCC(=O)O)NC(C)=O)[C@@H](C)O)C(=O)N[C@@H](C)C(=O)N[C@@H](Cc1c[nH]c2ccccc12)C(=O)NCC(=O)N1CCC[C@H]1C(=O)N[C@H](C(=O)NCC(=O)N[C@@H](CC(=O)O)C(=O)N[C@@H](CCC(=O)O)C(=O)N[C@@H](CCC(N)=O)C(N)=O)[C@@H](C)O (Ac-ETEFIAWGPTGDEQ-NH2)
Ki [2]: 37 ± 2 nM

CC(=O)N[C@@H](CCC(=O)O)C(=O)N[C@@H](CCC(=O)O)C(=O)N[C@@H](CC(=O)O)C(=O)N[C@@H](CC(=O)O)C(=O)N[C@@H](CO)C(=O)N[C@@H](CC(=O)O)C(=O)N[C@H](C(=O)N[C@@H](Cc1c[nH]c2ccccc12)C(=O)N[C@@H](Cc1c[nH]c2ccccc12)C(=O)NCC(=O)NCC(N)=O)C(C)C (Ac-EEDDSDVWWGG-NH2)
Ki [1]: 1754 ± 7 nM

CC(=O)N[C@@H](CCC(=O)O)C(=O)N[C@@H](CC(=O)O)C(=O)N[C@@H](CC(=O)O)C(=O)N[C@@H](CO)C(=O)N[C@@H](C)C(=O)N[C@H](C(=O)N[C@@H](Cc1c[nH]c2ccccc12)C(=O)N[C@@H](Cc1c[nH]c2ccccc12)C(=O)NCC(=O)NCC(=O)N[C@@H](C)C(=O)N[C@@H](CC(=O)O)C(=O)N[C@H](C(=O)N[C@@H](CC(=O)O)C(N)=O)[C@@H](C)O)C(C)C (Ac-EDDSAVWWGGADTD-NH2)
Ki [4]: 3076 ± 22 nM

CC(=O)N[C@@H](CCC(=O)O)C(=O)N[C@@H](CC(=O)O)C(=O)N[C@@H](CC(=O)O)C(=O)N[C@@H](C)C(=O)N[C@@H](CC(=O)O)C(=O)N[C@H](C(=O)N[C@@H](Cc1c[nH]c2ccccc12)C(=O)N[C@@H](Cc1c[nH]c2ccccc12)C(=O)NCC(=O)NCC(=O)N[C@@H](C)C(=O)N[C@@H](CC(=O)O)C(=O)N[C@H](C(=O)N[C@@H](CC(=O)O)C(N)=O)[C@@H](C)O)C(C)C (Ac-EDDADVWWGGADTD-NH2)
Ki [4]: 660 ± 21 nM

CC(=O)N[C@@H](CCC(=O)O)C(=O)N[C@@H](CC(=O)O)C(=O)N[C@@H](CC(=O)O)C(=O)N[C@@H](CO)C(=O)N[C@@H](CC(=O)O)C(=O)N[C@H](C(=O)N[C@@H](Cc1c[nH]c2ccccc12)C(=O)N[C@@H](Cc1c[nH]c2ccccc12)C(=O)NCC(=O)NCC(=O)N[C@@H](Cc1c[nH]cn1)C(=O)N[C@@H](CC(=O)O)C(=O)N[C@H](C(=O)N[C@@H](CC(=O)O)C(N)=O)[C@@H](C)O)C(C)C (Ac-EDDSDVWWGGHDTD-NH2)
Ki [3]: 346 ± 6 nM

CC[C@H](C)[C@H](NC(=O)[C@H](CC(=O)O)NC(=O)[C@H](CO)NC(=O)[C@H](CC(=O)O)NC(=O)[C@H](CC(=O)O)NC(=O)[C@H](CCC(=O)O)NC(C)=O)C(=O)N[C@@H](Cc1c[nH]c2ccccc12)C(=O)N[C@@H](Cc1c[nH]c2ccccc12)C(=O)NCC(=O)NCC(=O)N[C@@H](C)C(=O)N[C@@H](CC(=O)O)C(=O)N[C@H](C(=O)N[C@@H](CC(=O)O)C(N)=O)[C@@H](C)O (Ac-EDDSDIWWGGADTD-NH2)
Ki [3]: 401 ± 7 nM
